What was measured:
Format in all cases: in vivo
Setaria faberi (SETFA) [1] = test: Post-emergence herbicidal glasshouse test on Setaria faberi; conditions: post-emergence; 1000 g/h; evaluated after 13 days
Summary of the method: (§1)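 Read-out: percentage herbicidal damage 13 days after spraying, given on a five-point scale (5=80-100%, 4=60-79%, 3=40-59%, 2=20-39%, 1=0-19%). Pots of standard soil; application at 1000 g/h, one day post-sowing for pre-emergence, eight days for post-emergence.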

[2] = system: Ipomoea hederacea (IPOHE); test: Pre-emergence herbicidal glasshouse test on Ipomoea hederacea; conditions: pre-emergence; 1000 g/h; evaluated after 13 days
Summary of the method: as §1

Solanum nigrum (SOLNI) [3] = test: Pre-emergence herbicidal glasshouse test on Solanum nigrum; conditions: pre-emergence; 1000 g/h; evaluated after 13 days
Summary of the method: as §1

Solanum nigrum (SOLNI) [4] = test: Post-emergence herbicidal glasshouse test on Solanum nigrum; conditions: post-emergence; 1000 g/h; evaluated after 13 days
Summary of the method: as §1

[5] = system: Amaranthus retoflexus (AMARE); test: Post-emergence herbicidal glasshouse test on Amaranthus retoflexus; conditions: post-emergence; 1000 g/h; evaluated after 13 days
Summary of the method: as §1

[6] = system: Amaranthus retoflexus (AMARE); test: Pre-emergence herbicidal glasshouse test on Amaranthus retoflexus; conditions: pre-emergence; 1000 g/h; evaluated after 13 days
Summary of the method: as §1

[7] = system: Echinochloa crus-galli (ECHCG); test: Pre-emergence herbicidal glasshouse test on Echinochloa crus-galli; conditions: pre-emergence; 1000 g/h; evaluated after 13 days
Summary of the method: as §1

[8] = system: Echinochloa crus-galli (ECHCG); test: Post-emergence herbicidal glasshouse test on Echinochloa crus-galli; conditions: post-emergence; 1000 g/h; evaluated after 13 days
Summary of the method: as §1

[9] = system: Ipomoea hederacea (IPOHE); test: Post-emergence herbicidal glasshouse test on Ipomoea hederacea; conditions: post-emergence; 1000 g/h; evaluated after 13 days
Summary of the method: as §1

[10] = system: Alopecurus myosuroides (ALOMY); test: Pre-emergence herbicidal glasshouse test on Alopecurus myosuroides; conditions: pre-emergence; 1000 g/h; evaluated after 13 days
Summary of the method: as §1

[11] = system: Alopecurus myosuroides (ALOMY); test: Post-emergence herbicidal glasshouse test on Alopecurus myosuroides; conditions: post-emergence; 1000 g/h; evaluated after 13 days
Summary of the method: as §1

Setaria faberi (SETFA) [12] = test: Pre-emergence herbicidal glasshouse test on Setaria faberi; conditions: pre-emergence; 1000 g/h; evaluated after 13 days
Summary of the method: as §1

| Structure (SMILES) | POST Application SETFA herbicidal damage (five point scale) (Setaria faberi (SETFA) [1]) | PRE Application IPOHE herbicidal damage (five point scale) [2] | PRE Application SOLNI herbicidal damage (five point scale) (Solanum nigrum (SOLNI) [3]) | POST Application SOLNI herbicidal damage (five point scale) (Solanum nigrum (SOLNI) [4]) | POST Application AMARE herbicidal damage (five point scale) [5] | PRE Application AMARE herbicidal damage (five point scale) [6] | PRE Application ECHCG herbicidal damage (five point scale) [7] | POST Application ECHCG herbicidal damage (five point scale) [8] | POST Application IPOHE herbicidal damage (five point scale) [9] | PRE Application ALOMY herbicidal damage (five point scale) [10] | POST Application ALOMY herbicidal damage (five point scale) [11] | PRE Application SETFA herbicidal damage (five point scale) (Setaria faberi (SETFA) [12]) |
| --- | --- | --- | --- | --- | --- | --- | --- | --- | --- | --- | --- | --- |
| COCc1nc(C(F)(F)F)ccc1-c1cnn(C)c(=O)c1O [Compound 1.073] | 5 (5=80-100% damage) | 2 (2=20-39% damage) | 5 (5=80-100% damage) | 5 (5=80-100% damage) | 5 (5=80-100% damage) | 5 (5=80-100% damage) | 5 (5=80-100% damage) | 5 (5=80-100% damage) | 5 (5=80-100% damage) | 5 (5=80-100% damage) | 4 (4=60-79% damage) | 5 (5=80-100% damage) |
| Cn1ncc(-c2cc3cc(F)cnc3n(-c3ccsc3)c2=O)c(O)c1=O [Compound 1.074] | 5 (5=80-100% damage) | 1 (1=0-19% damage) | 1 (1=0-19% damage) | 5 (5=80-100% damage) | 5 (5=80-100% damage) | 5 (5=80-100% damage) | 4 (4=60-79% damage) | 5 (5=80-100% damage) | 5 (5=80-100% damage) | 2 (2=20-39% damage) | 2 (2=20-39% damage) | 1 (1=0-19% damage) |
| Cn1ncc(-c2ccc(C(F)(F)F)nc2N2CCOCC2)c(O)c1=O [Compound 1.075] | 2 (2=20-39% damage) | 2 (2=20-39% damage) | 5 (5=80-100% damage) | 5 (5=80-100% damage) | 5 (5=80-100% damage) | 5 (5=80-100% damage) | 5 (5=80-100% damage) | 5 (5=80-100% damage) | 5 (5=80-100% damage) | 1 (1=0-19% damage) | 3 (3=40-59% damage) | 1 (1=0-19% damage) |
| Cn1ncc(-c2ccc(C(F)(F)F)cc2Cl)c(O)c1=O [Compound 1.076] | 1 (1=0-19% damage) | 1 (1=0-19% damage) | 2 (2=20-39% damage) | 4 (4=60-79% damage) | 5 (5=80-100% damage) | 5 (5=80-100% damage) | 1 (1=0-19% damage) | 2 (2=20-39% damage) | 4 (4=60-79% damage) | 1 (1=0-19% damage) | 2 (2=20-39% damage) | 1 (1=0-19% damage) |
| Cn1ncc(-c2ccc(Cl)cc2Cl)c(O)c1=O [Compound 1.077] | 1 (1=0-19% damage) | 1 (1=0-19% damage) | 3 (3=40-59% damage) | 2 (2=20-39% damage) | 4 (4=60-79% damage) | 3 (3=40-59% damage) | 1 (1=0-19% damage) | 1 (1=0-19% damage) | 2 (2=20-39% damage) | 1 (1=0-19% damage) | 1 (1=0-19% damage) | 1 (1=0-19% damage) |
| Cn1ncc(-n2ccc(C(F)(F)F)cc2=O)c(O)c1=O [Compound 1.078] | 5 (5=80-100% damage) | 2 (2=20-39% damage) | 5 (5=80-100% damage) | 5 (5=80-100% damage) | 5 (5=80-100% damage) | 5 (5=80-100% damage) | 5 (5=80-100% damage) | 5 (5=80-100% damage) | 4 (4=60-79% damage) | 2 (2=20-39% damage) | 1 (1=0-19% damage) | 5 (5=80-100% damage) |
| Cn1ncc(-c2ccc(Br)cc2S(C)(=O)=O)c(O)c1=O [Compound 1.081] | 5 (5=80-100% damage) | 2 (2=20-39% damage) | 5 (5=80-100% damage) | 5 (5=80-100% damage) | 5 (5=80-100% damage) | 5 (5=80-100% damage) | 5 (5=80-100% damage) | 5 (5=80-100% damage) | 5 (5=80-100% damage) | 5 (5=80-100% damage) | 5 (5=80-100% damage) | 5 (5=80-100% damage) |
| Cc1cc(Cl)ccc1-c1cnn(C)c(=O)c1O [Compound 1.082] | 1 (1=0-19% damage) | 1 (1=0-19% damage) | 1 (1=0-19% damage) | 4 (4=60-79% damage) | 2 (2=20-39% damage) | 1 (1=0-19% damage) | 1 (1=0-19% damage) | 1 (1=0-19% damage) | 2 (2=20-39% damage) | 1 (1=0-19% damage) | 1 (1=0-19% damage) | 1 (1=0-19% damage) |
| Cc1cc(C#N)ccc1-c1cnn(C)c(=O)c1O [Compound 1.084] | 2 (2=20-39% damage) | 1 (1=0-19% damage) | 1 (1=0-19% damage) | 4 (4=60-79% damage) | 4 (4=60-79% damage) | 1 (1=0-19% damage) | 1 (1=0-19% damage) | 3 (3=40-59% damage) | 4 (4=60-79% damage) | 1 (1=0-19% damage) | 1 (1=0-19% damage) | 1 (1=0-19% damage) |
| Cn1ncc(-c2cc(F)ccc2Cl)c(O)c1=O [Compound 1.086] | 1 (1=0-19% damage) | 1 (1=0-19% damage) | 1 (1=0-19% damage) | 1 (1=0-19% damage) | 1 (1=0-19% damage) | 1 (1=0-19% damage) | 1 (1=0-19% damage) | 1 (1=0-19% damage) | 1 (1=0-19% damage) | 1 (1=0-19% damage) | 1 (1=0-19% damage) | 1 (1=0-19% damage) |
| Cn1ncc(-c2cc(Cl)c(Cl)cc2Cl)c(O)c1=O [Compound 1.089] | 1 (1=0-19% damage) | 1 (1=0-19% damage) | 1 (1=0-19% damage) | 1 (1=0-19% damage) | 1 (1=0-19% damage) | 1 (1=0-19% damage) | 1 (1=0-19% damage) | 1 (1=0-19% damage) | 1 (1=0-19% damage) | 1 (1=0-19% damage) | 1 (1=0-19% damage) | 1 (1=0-19% damage) |

Reference: patent publication US9693556B2, “Herbicidal pyridazinone derivatives” (SYNGENTA LIMITED, priority 2011, dated 2017)
